The numbers were not newly measured in patent US20220331289A1, “Pharmaceutical Composition Comprising an Artemisinin Derivative for Nasal or Pulmonary Delivery” (Cipla Limited, priority 2014, published 2022), which cites them from elsewhere.

For this data set the following is noted: oil-based intramuscular injection formulation.

Structures are written as SMILES.

In the case of `CO[C@H]1O[C@@H]2O[C@@]3(C)CC[C@H]4[C@H](C)CC[C@@H]([C@H]1C)[C@@]24OO3` [artemether], the absorption entry was “slowly and erratically absorbed”.
